Data taken from patent publication US20180237399A1, “COMPOUNDS HAVING AGONISTIC EFFECT AGAINST GPR84, PREPARATION METHOD FOR COMPOUNDS AND USE OF COMPOUNDS” (SHANGHAI INSTITUTE OF MATERIA MEDICA, CHINESE ACADEMY OF …, priority 2015, published 2018).
Read-outs that look alike come from different tables or passages of the source.

Experiments:
[1] = molecular target: T1, GPR84 (Homo sapiens, UniProt Q9NQS5); assay: Detection of cytoplasmic calcium ion concentration with Fluo-4 fluorescent dye tracer assay (GPR84 agonist activity); type: cell-based; design: expressed in transfected cells; host or cells: HEK293; details: HEK293 cell line transfected with GPR84 and G16; Fluo-4 calcium fluorescence
Description: Detection of Cytoplasmic Calcium Ion Concentration with Fluo-4 Fluorescent Dye Tracer Assay
The GPR84 agonist activity of the compounds of the invention was tested.
The human GPR84 cell line was obtained by transfecting a plasmid encoding the GPR84 and G16 proteins in the HEK293 cell line. The fluorescent dye Fluo-4 AM was purchased from Invitrogen.
Intracellular Ca^2+ ion is a very important second messenger of G protein-coupled receptor signaling pathway. […] Fluo-4 is a Ca^2+ ion-specific fluorescent probe that binds quantitatively to Ca^2+ ions and emits fluorescence. Therefore, fluorescence assay was used to detect the agonistic activity of compounds in 96-well or 384-well flat bottom microplates. The GPR84 cells were incubated with the Fluo-4 fluorescent dye and added with different concentrations of compounds for stimulation. The changes in the intracellular calcium concentration were detected by the fluorescence intensity of dyes.
• 1. […] The pH of the solution was adjusted to 7.4 with hydrochloric acid or NaOH. The solution was filtered, and stored at 4° C. for one month. • 2. Preparation of Ca^2+ buffer: Firstly, a 560 mM D-glucose (100×) stock solution and a 250 mM Sulfinpyrazone (1000×) stock solution were prepared. Then, to 100 mL of HBSS, was added BSA (0.5 g), 560 mM D-glucose stock solution (1 mL) and 250 mM Sulfinpyrazone (100 μL). […] The Ca^2+ buffer was mixed and used as freshly prepared. • 3. Preparation of dyes solution: Firstly, a stock solution of 3% Cremophor EL (100×) in PBS and a stock solution of 2 mM Fluo-4 (1000×) in DMSO was prepared. Secondly, one milliliter of dye solution was prepared by mixing 1 μL of 2 mM Fluo-4 AM with 10 μL of 3% Cremophor EL and diluting with 1 mL of Ca^2+ buffer and mixed. • 4. The GPR84 cells were cultured in a 96-well plate at a starting density of 4×10^4 cells. The cells were continually cultured for more than 24 hours so that the cell density was 80-90% for detection. • 5. The culture fluid was removed from the cells to be tested. The cells were added freshly prepared dyes and incubated in a 37-degree incubator for 40 minutes to 50 minutes. • 6. Preparation of […] solution: Compounds are dissolved and diluted to 3-fold the final working concentration with freshly prepared Ca^2+ buffer. If compounds are dissolved in DMSO, the final DMSO concentration should not exceed 1%. • 7. After the incubation completed, the dye was removed. The cells were washed with Ca^2+ buffer and then incubated with an additional 50 μL of Ca^2+ buffer for 5 to 10 minutes. • 8. The cells were stimulated with 25 μL/well of Ca^2′ buffer containing different concentrations of the compound. The plate was read by using the FlexStation III Multi-Mode Microplate Reader. The changes in the intracellular calcium concentration were detected by the fluorescence intensity of dyes.
Target sequence in this assay (Q9NQS5 whole entry): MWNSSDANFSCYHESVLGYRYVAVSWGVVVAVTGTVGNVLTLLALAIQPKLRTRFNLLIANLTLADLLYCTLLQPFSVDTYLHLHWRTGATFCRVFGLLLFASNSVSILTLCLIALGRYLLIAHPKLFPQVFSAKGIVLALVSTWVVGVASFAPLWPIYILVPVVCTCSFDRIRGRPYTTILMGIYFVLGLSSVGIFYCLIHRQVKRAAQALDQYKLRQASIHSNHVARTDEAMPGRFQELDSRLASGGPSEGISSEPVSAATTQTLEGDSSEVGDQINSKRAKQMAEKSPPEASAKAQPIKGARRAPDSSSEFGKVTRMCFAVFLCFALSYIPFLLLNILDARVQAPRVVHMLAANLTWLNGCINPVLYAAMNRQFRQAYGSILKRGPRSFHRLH

[2] = molecular target: T1, GPR84; details: in words; cited from earlier work
Target sequence in this assay (Q9NQS5 whole entry, species assumed): as the sequence (Q9NQS5 whole entry) above

[3] = molecular target: T1, GPR84; details: CHO-GPR84 cells, cAMP assay; read-out: potencies (GPR84 agonists); cited from earlier work
Target sequence in this assay (Q9NQS5 whole entry, species assumed): as the sequence (Q9NQS5 whole entry) above

| Compound | EC50 [1] [µM] | also measured |
| --- | --- | --- |
| CCCCCCCCCCCCSc1nc(O)cc(O)n1 [LY312-12] | 1.16 | – |
| Oc1cc(O)nc(SCC2CCC2)n1 [LY212] | 43.4 | – |
| CCCCCCCC(O)CC(=O)O (stereo not shown) [3-OH—C10] | – | GPR84 agonist activities [2]: some GPR84 agonist activities |
| Oc1cc(O)nc(SCCc2ccccc2)n1 [LY248] | 3.86 | – |
| CCCCCCCCNc1nc(O)cc(O)n1 [LY239] | 0.00614 | – |
| CCCCCCCCCCCC(=O)O [lauric acid] | – | EC50 [3]: 9 µM |
| CCC#CCCSc1nc(O)cc(O)n1 [LY224-a] | 0.653 | – |
| CCCCCCCCCCC(O)C(=O)O (stereo not shown) [2-OH—C12] | – | GPR84 agonist activities [2]: some GPR84 agonist activities |
| Oc1cc(O)nc(SCCCCCc2ccccc2)n1 [LY290-a] | 1.08 | – |
| CCCCCCCCSc1nc(O)cc(O)n1 [LY256-8] | 0.264 | – |
| CCCCCCCCCc1cc(O)cc(=O)o1 [LY238-d] | 0.00351 | – |
| CCCCCCCc1cc(O)cc(O)n1 [LY209] | 0.00125 | – |
| CCCCCCCCc1nc(O)cc(O)n1 [LY224-b] | 0.0114 | – |
| CCc1ccc(CSc2nc(O)cc(O)n2)cc1 [LY262-b] | 0.271 | – |
| CCCCCCCCCCCCCCCCSc1nc(O)cc(O)n1 [LY368-16] | 11.3 | – |
| Oc1cc(O)nc(SCCCc2ccccc2)n1 [LY262-a] | 0.573 | – |
| Oc1cc(O)nc(SCCc2ccccc2F)n1 [LY266-b] | 1.99 | – |
| CCCCCCCCCc1cc(O)cc(O)c1 [LY236] | 0.435 | – |
| CCCCCCCCc1cc(=O)[nH]c(=S)[nH]1 [LY240] | 0.34 | – |
| CCCCCCCCc1cc(=O)[nH]c(=O)[nH]1 [LY224-c] | 0.811 | – |

| Compound | EC50 [1] [µM] | also measured |
| --- | --- | --- |
| CCCCCSc1nc(O)cc(O)n1 [LY214-5] | 2.48 | – |
| Oc1cc(O)nc(SCCc2cccc(F)c2)n1 [LY266-c] | 2.59 | – |
| CC/C=C\CCSc1nc(O)cc(O)n1 [LY226] | 0.924 | – |
| CCc1ccc(CCc2nc(O)cc(O)n2)cc1 [LY244] | 0.0881 | – |
| CCCCCCCCC(O)C(=O)O (stereo not shown) [2-OH—C10] | – | GPR84 agonist activities [2]: some GPR84 agonist activities |
| CCCCCc1nc(O)cc(O)n1 [LY182] | 3.67 | – |
| CC(C)CCCc1nc(O)cc(O)n1 [LY196b] | 2.1 | – |
| CCCCCCCc1nc(O)cc(O)n1 [LY210-b] | 0.0127 | – |
| CCCCCCCSc1nc(O)cc(O)n1 [LY242-7] | 0.231 | – |
| CC(C)CCCSc1nc(O)cc(O)n1 [LY228-6b] | 0.641 | – |
| CCCCCCCCCCCCCCSc1nc(O)cc(O)n1 [LY340-14] | 25.7 | – |
| CCCCCCCCc1cc(O)cc(O)n1 [LY223] | 0.00134 | – |
| CCCCc1ccc(-c2cc(O)cc(O)n2)cc1 [LY243] | 0.0061 | – |
| CCCCCCCC(C)c1nc(O)cc(O)n1 (stereo not shown) [LY238-c] | 0.299 | – |
| Oc1cc(O)nc(SCCCCc2ccccc2)n1 [LY276] | 0.435 | – |
| CCCCCCCCc1nc(O)nc(O)n1 [LY225-b] | 1.02 | – |
| C#CCCCSc1nc(O)cc(O)n1 [LY210] | 21.6 | – |
| O=c1cc(O)nc(SCCc2ccc(F)cc2)[nH]1 [LY266-a] | 2.94 | – |
| CCCCCCCCCc1nc(O)cc(O)n1 [LY238] | 0.0487 | – |
| CCCCCCCCCC(O)CC(=O)O (stereo not shown) [3-OH—C12] | – | GPR84 agonist activities [2]: some GPR84 agonist activities |
